Reference: patent US11478451B1, “Macrocyclic chlorine substituted indole derivatives” (Bayer Aktiengesellschaft, priority 2017, dated 2022)
Structures can show the parent of a compound that is named as a salt. Where two headings read alike, the source gives them in different places.

Experiments:
MCL1 protein = MCL1 protein (Homo sapiens (Human), UniProt Q07820); assay: PIxEL: protein-protein interaction in permeabilized cells by ELISA (MCL1/biotin-BIM BH3 peptide, RKO cells); type: cell-based; conditions: IC50, median, serum free
Experimental: PIxEL: Protein-Protein Interaction in Permeabilized Cells by ELISA
Most MCL1 protein molecules are localized at the mitochondria outer membrane and sequester pro-apoptotic proteins through binding of their BCL2 homology domain 3 (BH3 domain). MEB buffer (150 mM mannitol, 10 mM HEPES pH 7.5, 50 mM KCl, 20 μM EDTA, 20 μM EGTA, 5 mM potassium succinate, 0.1% protease-free BSA (SIGMA) with low dose digitonin (0.002%) permeabilizes plasma membrane while leaves live mitochondria, where MCL1 maintains its native localization and conformation. Unlike biophysical assays (e.g. TR-FRET) that use truncated recombinant MCL1 protein, this assay uses full length endogenous MCL1 protein at mitochondria outer membrane. It measures the interaction between MCL1 protein and biotinylated BIM BH3 peptide. Compounds can compete with BIM BH3 peptide to bind to MCL1 protein.
On day 1, RKO colon cancer cell line cells were plated at 0.8 million cells/ml, 100 μl/well in 96-well flat bottom TC plates (Corning). MCL1 antibody (Santa Cruz sc-12756) were diluted at 200 fold (final concentration 1 μg/ml) in carbonate buffer (Thermo Fisher Scientific, pH 9.6), and 50 μl of diluted antibody was added to each well of high bind ELISA plates ([…]). Each plate was tapped to make sure liquid covering entire bottom of wells and incubate at 37° C. overnight.
On the second day, MCL1 antibody was washed from ELISA plate. 250 μl Odyssey® Blocking Buffer (PBS) (Li-Cor) was added to each well, incubated at room temperature for at least 1 hour, then washed once with 250 μl 1×PBST. Plates with RKO cells were gently washed once with 100 μl/well PBS, once with 100 μl/well MEB buffer without digitonin, then 100 μl of MEB buffer with 0.002% digitonin was gently added to each well. Compounds were added with HP Tecan compound dispenser in 3-fold dilution series, highest dose 30 μM, 10-dose per compound in quadruplicates. Biotin-BIM peptide (synthesized by 21st Century) was added with HP Tecan compound dispenser at 0.2 μM immediately after the addition of compounds. Plates were rocked for 1 hour at room temperature. Then MEB buffer was aspirated and 50 μl of CHAPS buffer (50 mM Tris-Cl, pH 7.4, 150 mM NaCl, 1% CHAPS, 1 mM EDTA, 1 mM EGTA, cOmplete protease inhibitors (Roche), PhosSTOP (Roche)) was added to each well. Plates were rocked for 1 hour at 4° C., then 45 μl cell lysate from each well were transferred to ELISA plates coated with MCL1 antibody. Plates were incubated overnight in the cold room with rocking.
On the third day, ELISA plates were washed once with 250 μl 1×PBST. Streptavidin-poly-HRP (Thermo Fisher Scientific) was diluted to 20 ng/ml in Odyssey blocking buffer plus 0.05% Triton-100, and 100 μl was added to each well of the ELISA plate. Plates were incubated at RT from 1 hour with rocking, then washed with 100 μL 1×PBST for 3 times. Each SuperSignal ELISA Femto Maximum Sensitivity substrate was added to a 50-ml tube and mixed, then 100 μl of mixed substrate was added to each well. Plates were shaken for 1 minute then luminescence was measured by Envision plate reader […]. Signal of each well were normalized by no-compound control and no-cell control. IC50 was calculated using Graphic Pad PRISM software.

AMO-1 cells = assay: Antiproliferation assay (CellTiter-Glo, 72 h), AMO-1; type: cell-based; conditions: Homo sapiens, AMO1, 72 h, IC50, median; AMO-1, 72 h; read-out: Antiproli AMO-1 [M] median
In short: (§1)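 Cells plated in treatment plates plus a day 0 reference plate; incubated 72 h at 37 °C; CellTiter-Glo added, 10 min incubation, luminescence read; day 0 plate read at time zero.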

HMC-1-8 cells = assay: Antiproliferation assay (CellTiter-Glo, 72 h), HMC-1-8; type: cell-based; conditions: IC50, median, HMC-1-8, 72 h, read-out: Antiproli HMC-1-8 [M] median
In short: as §1

MCL-1 = MCL-1 (Homo sapiens (Human), UniProt Q07820, K194A/K197A/R201A); assay: Protein-protein interaction assay MCL-1/Noxa BH3 peptide (MCL-1 assay), TR-FRET; type: binding; conditions: IC50, median; MCL-1/Noxa BH3 TR-FRET
Experimental: The dose-dependent inhibition by the compounds described in this invention of the interaction between MCL-1 and the BH3 domain of Noxa (both human) was determined using a steady state binding competition assay with time-resolved fluorescence energy transfer (TR-FRET) readout. […] The MBP-MCL-1 was purchased from Beryllium (Bedford, Mass., USA). The expression and purification of this protein construct has been described elsewhere (DOI:10.1371/journal.pone.0125010). The Noxa BH3-derived peptide can be obtained from e.g. Biosyntan (Berlin, Germany), 50812.1.
For that, 100-fold concentrated DMSO solutions were prepared by serial dilutions (1:3.4) of a 2 mM stock solution in a clear, 384-well microtiter plate (Greiner Bio-One, Frickenhausen, Germany). From there, 50 nl were transferred in a dark test plate (Greiner Bio-One, Frickenhausen, Germany). […] This was followed by a 10-minute incubation step at 22° C. for pre-equilibration of the putative complex between MBP-MCL-1 and the compounds.
The mixture was incubated in the dark for one hour at 22° C. and then overnight at 4° C.
The resulting data (ratio) were normalized, taking 0% inhibition as the mean value of control measurements (usually 32 data points) where all reagents were included. In this case 50 nl DMSO were used instead of compounds. […] IC50 values were determined by regression analysis based on a 4 parameter equation (minimum, maximum, IC50, Hill; Y=Max+(Min−Max)/(1+(X/IC50)^Hill) using the Screener Software (Genedata).

SUDHL10 cells [1] = assay: Induction of cytotoxicity (CellTiter-Glo, 5 h), SUDHL10; conditions: SUDHL10, 5 h
SUDHL5 cells [2] = assay: Antiproliferation assay (CellTiter-Glo, 72 h), SUDHL5; type: cell-based; conditions: IC50, median; SUDHL5, 72 h; read-out: Antiproli SUDHL5 [M] (median)
In short: as §1

MV-4-11 cells = assay: Antiproliferation assay (CellTiter-Glo, 72 h), MV-4-11; type: cell-based; conditions: IC50, median; MV-4-11, 72 h; read-out: Antiproli MV-4-11 [M] median
Experimental: (§2) Assessment of the Anti-Proliferative Effect of Compounds in Different Cell Lines
(§3) The impact of compounds on the proliferation of different cell lines was assessed using the CellTiter-Glo® Luminescent Cell Viability reagent from Promega (G7573).
(§4) In parallel, cells were plated in a reference (day 0) plate for time zero determination.
(§5) Rim wells were excluded. The cells were incubated for 72 h hours in a humidified incubator at 37° C. The day 0 plate was measured by adding 30 μL/well of CTG solution (CellTiter-Glo® Luminescent Cell Viability reagent, Promega G7573) to time zero wells in the reference plate followed by a 10 minutes incubation and luminescence reading at 0.1 ms. using the PHERAstar FS microplate reader (BMG Labtech).
(§6) After 72 h incubation, the treated plates were measured in the same way as the day 0 plate mentioned above.

SUDHL5 cells [3] = assay: Induction of cytotoxicity (CellTiter-Glo, 5 h), SUDHL5; conditions: read-out: Cytotox SUDHL5 [M] (median); IC50, median; SUDHL5, 5 h
Experimental: Therefore, cytotoxicity assays were run in parallel in SUDHL5 and SUDHL10 cells.
The different cell lines were plated in culture medium (RPMI 1640 [GIBCO #22400-089] supplemented with 10% Fetal Bovine Serum) at a density of 3,300 cells in 30 μL/well in a sterile, solid black, flat bottom, polystyrene, TC-treated 384-well microplate (Corning #3571) using Multidrop Combi Reagent Dispenser. As a control, medium without cells was also added to the plate. Cells were incubated in a humidified incubator at 37° C. overnight. […] Rim wells were excluded. The cells were incubated for 5 h hours in a humidified incubator at 37° C. After this incubation, 30 μL of CellTiter-Glo® Luminescent Cell Viability reagent (Promega, G7573) was added to each well using the Multidrop Combi Reagent Dispenser, followed by 15 min incubation on a shaker at room temperature. Finally, luminescence was read at 0.1 ms, with a gain of 3000 using the PHERAstar FS microplate reader (BMG Labtech).

SUDHL5 cells [4] = assay: Induction of caspase-3/7 activity (Caspase-Glo 3/7), SUDHL5; type: cell-based; conditions: EC50, median; SUDHL5, 3 h treatment
In short: (§7)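 Caspase-3/7 activation serves as the apoptosis read-out for MCL-1 inhibition. Cells are treated with compound for 3 h at 37 °C and assayed with Caspase-Glo 3/7; values are corrected by subtracting medium-only background.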

SUDHL10 cells [5] = assay: Induction of caspase-3/7 activity (Caspase-Glo 3/7), SUDHL10; type: cell-based; conditions: EC50, median; SUDHL10, 3 h treatment
In short: as §7

SNU-389 cells = assay: Antiproliferation assay (CellTiter-Glo, 72 h), SNU-389; type: cell-based; conditions: read-out: Antiproli SNU-389 [M] median
Experimental: as §2, §3, §4, §5, §6

DMS-114 cells = assay: Antiproliferation assay (CellTiter-Glo, 72 h), DMS-114; type: cell-based; conditions: Homo sapiens, DMS-114, 72 h; read-out: Antiproli DMS-114 [M] median
Experimental: as §2, §3, §4, §5, §6

[6] = Homo sapiens, SU-DHL10, 5 h, read-out: Cytotox SUDHL10 [M] (median), IC50, median

Chain of MCL1 protein (Q07820 whole entry): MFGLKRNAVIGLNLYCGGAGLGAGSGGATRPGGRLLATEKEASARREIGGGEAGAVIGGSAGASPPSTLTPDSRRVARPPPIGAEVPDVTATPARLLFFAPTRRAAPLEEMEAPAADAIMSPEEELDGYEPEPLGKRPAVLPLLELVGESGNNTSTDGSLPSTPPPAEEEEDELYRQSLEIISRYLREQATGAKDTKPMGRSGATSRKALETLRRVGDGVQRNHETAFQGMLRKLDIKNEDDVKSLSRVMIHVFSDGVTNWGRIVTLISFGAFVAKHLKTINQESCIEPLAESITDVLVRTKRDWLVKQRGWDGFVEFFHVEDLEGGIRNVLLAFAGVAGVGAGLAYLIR
Chain of MCL-1 (Q07820 whole entry K194A/K197A/R201A, looked up, the tested form may be a part): as the sequence (Q07820 whole entry) above, with K194A, K197A, R201A counted along it

Structure (SMILES) | IC50 (MCL1 protein) | IC50 (MCL-1) | IC50 (AMO-1 cells) | IC50 (SUDHL10 cells [1]; [6]) | IC50 (SUDHL5 cells [2]) | IC50 (MV-4-11 cells) | IC50 (SUDHL5 cells [3]) | IC50 (HMC-1-8 cells) | other results
Cc1c2c(nn1C)CN(C)CCCCn1c(C(=O)O)c(CCCOc3cccc4cc(F)ccc34)c3ccc(Cl)c-2c31 (racemic) [Example 30, (rac)-4-chloro-7-{3-[(6-fluoronaphthalen-1-yl)oxy]propyl}-2,3,14-trimethyl-10,11,12,13,14,15-hexahydro-2H-pyrazolo[3′,4′:8,9][1,6]diazacycloundecino[10,11,1-hi]indole-8-carboxylic acid] | 227 nM |  | 4.2e-07 M |  |  |  |  |  | IC50 (HMC-1-8 cells; 72 h): 1.6e-06 M
Cc1c2c(nn1C)CN(C)CCCCn1c(C(=O)O)c(CCCOc3cccc4ccccc34)c3ccc(Cl)c-2c31 (single isomer, unassigned; enantiomer 2) [Example 13, (−)-4-chloro-2,3,14-trimethyl-7-[3-(naphthalen-1-yloxy)propyl]-10,11,12,13,14,15-hexahydro-2H-pyrazolo[3′,4′:8,9][1,6]diazacycloundecino[10,11,1-hi]indole-8-carboxylic acid-N-ethylethanamine salt (Enantiomer 2)] |  |  |  |  | 6.4e-06 M | 1.22e-05 M | 6.9e-06 M |  | 
Cc1c2c(nn1C)COCCCCn1c(C(=O)O)c(CCCOc3cccc4cc(F)ccc34)c3ccc(Cl)c-2c31 (single isomer, unassigned; enantiomer 2) [Example 17, (−)-4-chloro-7-{3-[(6-fluoronaphthalen-1-yl)oxy]propyl}-2,3-dimethyl-2,10,11,12,13,15-hexahydropyrazolo[4′,3′:9,10][1,6]oxazacycloundecino[8,7,6-hi]indole-8-carboxylic acid-N-ethylethanamine salt (Enantiomer 2)] |  |  |  |  | 2.1e-07 M | 6.7e-06 M | 2.2e-07 M | 1.2e-06 M | EC50 (SUDHL5 cells [4]): 290 nM; EC50 (SUDHL10 cells [5]): 380 nM; IC50 (SNU-389 cells; IC50, median, SNU-389, 72 h): 9.86e-07 M; IC50 (SUDHL10 cells [1]; read-out: Cytotox SUDHL10 [M] (median), IC50, median): 6.6e-07 M

The next lines start with results.

IC50 (MCL1 protein) | IC50 (MCL-1) | Structure (SMILES) | IC50 (AMO-1 cells) | IC50 (SUDHL10 cells [1]; [6]) | IC50 (SUDHL5 cells [2]) | IC50 (MV-4-11 cells) | IC50 (SUDHL5 cells [3]) | IC50 (HMC-1-8 cells) | other results
436 nM | 1.7 nM | Cc1c2c(nn1CCCN1CCN(C)CC1)COCCCCn1c(C(=O)O)c(CCCOc3cccc4ccccc34)c3ccc(Cl)c-2c31 (single isomer, unassigned; enantiomer 1) [Example 49, (+)-4-chloro-3-methyl-2-[3-(4-methylpiperazin-1-yl)propyl]-7-{3-[(naphthalen-1-yl)oxy]propyl}-2,10,11,12,13,15-hexahydropyrazolo[4′,3′:9,10][1,6]oxazacycloundecino[8,7,6-hi]indole-8-carboxylic acid (Enantiomer 1)] | 1.5e-06 M | 1e-06 M |  |  |  |  | 
 | 62 nM | CCc1c2c(nn1C)CN(CCN1CCOCC1)CCCCn1c(C(=O)O)c(CCCOc3cccc4cc(F)ccc34)c3ccc(Cl)c-2c31 (single isomer, unassigned; enantiomer 2) [Example 143, 4-chloro-3-ethyl-7-{3-[(6-fluoronaphthalen-1-yl)oxy]propyl}-2-methyl-14-[2-(morpholin-4-yl)ethyl]-10,11,12,13,14,15-hexahydro-2H-pyrazolo[3′,4′:8,9][1,6]diazacycloundecino[10,11,1-hi]indole-8-carboxylic acid (Enantiomer 2)] |  |  | 9.4e-06 M |  |  |  | 
1740 nM |  | Cc1c2c(nn1C)COCC1CC1Cn1c(C(=O)O)c(CCCOc3cccc4ccccc34)c3ccc(Cl)c-2c31 (single isomer, unassigned; stereoisomer 2) [Example 66, (9aR,10aS or 9aS,10aR)-3-chloro-4,5-dimethyl-14-{3-[(naphthalen-1-yl)oxy]propyl}-5,7,9a,10,10a,11-hexahydro-9H-cyclopropa[3,4]pyrazolo[4′,3′:9,10][1,6]oxazacycloundecino-[8,7,6-hi]indole-13-carboxylic acid—Stereoisomer 2] |  | 1.4e-07 M |  |  |  | 1e-06 M | IC50 (SNU-389 cells; 72 h): 5.76e-07 M; IC50 (DMS-114 cells): 3.15e-07 M
